Drawing on PubChem BioAssay (NCI), this text covers TGI and GI50 for 15 molecules.

Holding throughout (test): NCI-60 cell line screen, 48 h
In assay [1] the test system is HCT-116 colon.
For assay [2], the system named is A498 renal.
Assay [3] deals with OVCAR-8 ovarian.
In assay [4] the test system is ACHN renal.
Assay [5] relates to OVCAR-3 ovarian.
The test system of assay [6] is SN12C renal.
Assay [7] relates to HCT-15 colon.
The test system of assay [8] is PC-3 prostate.
The test system of assay [9] is NCI/ADR-RES ovarian.
The subject of assay [10] is MDA-MB-435.

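Briefly, cells in 96-well plates were exposed to five compound concentrations for 48 h, and endpoints were estimated by linear interpolation. GI50 is the concentration that inhibits growth by half. Definition used: TGI = concentration required for complete inhibition of growth.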

Take `C[C@]12CCC[C@H](O)[C@H]1C[C@H](CO)CC2`: the TGI in assay [1], in assay [2], in assay [3], in assay [4], in assay [5] and in assay [6] was greater than 100 µM throughout. The molecule also registered a TGI in assay [7] greater than 100 µM.
Take `CC(=O)[CH-]C(=O)c1ccccc1.CC(=O)[CH-]C(=O)c1ccccc1.CC[C@H](/C=C/C(C)[C@H]1CCC2[C@@H]3CC=C4C[C@@H]([O-])CC[C@]4(C)C3CC[C@@]21C)C(C)C.CC[O-].[Ti+4]` (stereo partly drawn): the GI50 in assay [1] is greater than 100 µM; in assay [2] it was greater than 100 µM; in assay [3], greater than 100 µM; in [4], 16.2 µM; in assay [5], greater than 100 µM; in [6], greater than 100 µM. Besides, in assay [7], the GI50 was greater than 100 µM. In addition, the TGI in assay [1], in [2], in assay [3], in assay [4], in assay [5] and in assay [6] was greater than 100 µM each time. The molecule further came in with a TGI in assay [7] greater than 100 µM.
On to `C/C(=N\NS(=O)(=O)c1ccc(C)cc1)c1cc2ccccc2n1C`, for which the TGI was greater than 100 µM in assay [1]; greater than 100 µM in [2]; greater than 100 µM in assay [3]; greater than 100 µM in [4]; 57.7 µM in assay [6]; greater than 100 µM in assay [7].
In the case of `NC1=NN(c2ccccc2)C(=O)C1/C(=N\NC(=O)c1cc2ccccc2cc1O)C(=O)Nc1cccc(C(F)(F)F)c1` (stereo not drawn), the TGI in [1] was 94.9 µM; in assay [3], greater than 100 µM; in assay [4], greater than 100 µM; in [5] it was greater than 100 µM; in assay [6], greater than 100 µM.
Take `O=C(/C=C/c1ccccc1Cl)c1cccc2ccccc12`: the TGI in assay [1] was 12.8 µM; in assay [2], 27.5 µM; in assay [3], 4.19 µM; in assay [4] it was 30.4 µM; in [5], 15 µM; in assay [6], greater than 100 µM. The same molecule came in with a TGI in assay [7] of 17.2 µM.
In the case of `COc1ccc(-c2nc(Nc3ccc(-c4nc5ccccc5[nH]4)cc3)nc(N3CCOCC3)n2)cc1`, the GI50 in assay [1] was 1.9 µM; in assay [8], 2.39 µM; in [2] it was 1.52 µM; in assay [3] it was 3.26 µM; in assay [4], 2.55 µM; in [6], 3.19 µM. Also, the GI50 is 1.67 µM in assay [7] and 3.18 µM in [9]. The TGI was 3.54 µM in assay [1]; 6.66 µM in assay [8]; 3.57 µM in assay [2]; 10.8 µM in assay [3]; greater than 100 µM in assay [4]; 23 µM in assay [6]. For the same molecule, the TGI stood at 4.78 µM in [7] and 26.7 µM in assay [9].
Turning to `COC(=O)C1=CC2CC1C(S(=O)(=O)c1ccccc1)C2S(=O)(=O)c1ccccc1` (stereo not drawn), the TGI in assay [1] turned out to be 28.7 µM; in assay [2], 42.9 µM; in assay [3], 38.5 µM; in assay [5] it was 21.2 µM; in assay [6], 28.8 µM; in [7], 26.8 µM.
Regarding `NC(=O)c1ncn(CCN2CCN(C(=O)NCCCCCCNC(=O)N3CCN(CCn4cnc(C(N)=O)c4N)CC3)CC2)c1N`, the TGI in assay [1], in [3], in assay [4], in assay [5], in assay [6] and in assay [7] was greater than 100 µM each time.
`COc1ccc2c(c1)[n+]([O-])c(-c1ccc(Br)cc1)c(N)[n+]2[O-]`: the TGI in assay [1], in assay [2], in [3], in assay [4], in assay [5] and in assay [6] was greater than 100 µM in each case.
With `Cn1cc(-c2csc(-c3cn(CCCCN4CCCCC4)c4ccc(F)cc34)n2)c2cccnc21`, the GI50 in [2] was 1.6 µM; in [5], 1.77 µM; in assay [7], 1.7 µM; in assay [10], 1.52 µM. Moreover, the TGI was found to be 3.28 µM in [2], 3.17 µM in assay [5], 3.06 µM in assay [7] and 2.84 µM in [10].
As for `CC1=NN2C(c3ccc(C)cc3)=CSC2=NC(C)(C)C1`, the TGI in assay [1], in assay [2], in assay [3], in assay [4], in assay [5] and in assay [6] was greater than 100 µM throughout. The same molecule showed a TGI in assay [7] greater than 100 µM.
Turning to `CC(C)=CCC1=C(OCC(=O)O)C(=O)c2ccccc2C1=O`, the TGI is 66.8 µM in assay [1]; greater than 100 µM in assay [8]; greater than 100 µM in assay [2]; greater than 100 µM in [3]; greater than 100 µM in assay [4]; 74.8 µM in assay [6]. In addition, the TGI was greater than 100 µM in assay [7], greater than 100 µM in assay [9] and 29 µM in [10].
In the case of `O=C(CC1(O)C(=O)Nc2ccccc21)c1ccc(F)cc1` (stereo not drawn), the TGI in [1], in assay [2], in [3], in [4], in assay [5] and in [6] was greater than 100 µM each time. Moreover, the TGI in assay [7] is greater than 100 µM.
`CC(=O)[CH-]C(=O)c1ccccc1.CC(=O)[CH-]C(=O)c1ccccc1.CC1(C)OCC(C2OC3OC(C)(C)OC3C2[O-])O1.CC1(C)OCC(C2OC3OC(C)(C)OC3C2[O-])O1.[Ti+4]` (stereo not drawn): the GI50 in assay [1] was 14.4 µM; in assay [2], 15.7 µM; in assay [3] it was 13.9 µM; in assay [4] it was 16.4 µM; in assay [6] it was 17.7 µM; in assay [7], 15.4 µM. Also, the TGI in assay [1] amounted to 32.1 µM; in assay [2], 30.2 µM; in assay [3], 34.3 µM; in assay [4] it was 38.1 µM; in assay [6], 43.4 µM; in assay [7], 46.5 µM.
As to `Cc1cc(Cl)ccc1NC(=O)CCCC(=O)C1CCC/C1=N\NC(=O)CC#N` (stereo not drawn), the TGI in [1], in [2], in [3], in assay [4], in [5] and in assay [6] was greater than 100 µM throughout. The same molecule returned a TGI in [7] greater than 100 µM.
